Source: patent US20220387608A1, “ADRENOMEDULLIN-ANALOGUES FOR LONG-TERM STABILIZATION AND THEIR USE” (Bayer Aktiengesellschaft, priority 2019, published 2022)
Positions of bridges follow the written chain, without caps; N, C: chain ends. Non-standard residues stand in square brackets, D forms with d. Residues, ends and D or L forms follow the SMILES beside them. *: point of attachment. C18 diacid = O=C(O)CCCCCCCCCCCCCCCCC(=O)*; PEG5 = NCCOCCOCCOCCOCCOCCC(=O)O; PEG4 = NCCOCCOCCOCCOCCC(=O)O; PEG3 = NCCOCCOCCOCCC(=O)O

Target: T1, AM1R (Homo sapiens, UniProt O60895+Q16602)
T1 construct: EYFP; ECFP; expressed in transfected cells; host or cells: HEK-293 (transient co-transfection)
T1 sequence (Q16602 23-461): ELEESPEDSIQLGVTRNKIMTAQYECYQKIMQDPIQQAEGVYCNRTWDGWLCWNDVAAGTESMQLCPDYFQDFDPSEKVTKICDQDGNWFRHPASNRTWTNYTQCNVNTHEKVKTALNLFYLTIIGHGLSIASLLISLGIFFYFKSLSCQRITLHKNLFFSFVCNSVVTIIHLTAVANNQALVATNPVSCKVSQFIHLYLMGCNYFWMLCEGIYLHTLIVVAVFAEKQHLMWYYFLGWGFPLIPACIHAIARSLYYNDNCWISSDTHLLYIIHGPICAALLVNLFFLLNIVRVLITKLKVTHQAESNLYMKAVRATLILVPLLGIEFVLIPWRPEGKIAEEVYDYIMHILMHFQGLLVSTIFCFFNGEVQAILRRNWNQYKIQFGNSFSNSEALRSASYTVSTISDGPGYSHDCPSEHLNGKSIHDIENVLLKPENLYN
T1 sequence (O60895 43-175): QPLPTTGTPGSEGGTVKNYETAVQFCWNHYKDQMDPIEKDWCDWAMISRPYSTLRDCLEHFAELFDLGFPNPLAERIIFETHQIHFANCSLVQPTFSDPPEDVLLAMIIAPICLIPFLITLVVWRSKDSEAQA
Test: Activity determination in vitro: cAMP/CRE-luciferase reporter assay in HEK293 cells transiently co-transfected with CLR and RAMP2
Assay type: cell-based
Details: for Emax: HEK293, normalized to [G14]ADM(14-52); for EC50: HEK293 with CLR/RAMP2, CRE-luciferase, 3 h stimulation
Protocol: (1a) Activity Determination of Adrenomedullin Analogues in vitro
Cell Culture HEK-293 cells (human embryonic kidney cells) were cultured in Ham's F-12/DMEM (1/1; v/v) containing 15% FCS under humidified atmosphere at 37° C. and 5% CO2 in 75 cm^2 cell culture flasks.
Cells were cultured in 75 cm^2 flasks to 70-80% confluency. 45 μl Metafectene® Pro was diluted in 900 ρl Ham's F-12/DMEM (1/1; v/v) and incubated for 20 min at room temperature. 9 μg plasmid containing DNA of CLR fused to EYFP and 3 μg plasmid containing DNA of RAMP2 fused to ECFP were dissolved in 900 μl Ham's F-12/DMEM (1/1; v/v). The plasmid solution was mixed with the Metafectene® Pro solution and incubated for 25 min at room temperature. Medium was removed from the cells and replaced by 6 m1 Ham's F-12/DMEM (1/1; v/v) containing 15% FCS. After addition of transfection solution the cells were incubated for 3 h under humidified atmosphere at 37° C. and 5% CO2. For the second transfection 45 μl Metafectene® Pro was diluted in 900 μl Ham's F-12/DMEM (1/1; v/v) and incubated for 20 min at room temperature. 12 μg of pGL4.29[Luc2P/CRE/Hygro] plasmid containing DNA for the luciferase reporter gene luc2P (with CRE promotor region) were dissolved in 900 μl Ham's F-12/DMEM (1/1; v/v). The plasmid solution was mixed with the Metafectene® Pro solution and incubated for 25 min at room temperature. Medium was removed from the cells and replaced by 6 m1 Ham's F-12/DMEM (1/1; v/v) containing 15% FCS. After addition of transfection solution, the cells were incubated under humidified atmosphere at 37° C. and 5% CO2 over night.
For coating of 96-well-plates, 50 μl of a poly-D-lysine solution in DPBS (0.1 mg/ml) were pipetted in each well and incubated for 40 min. After removal of poly-D-lysine, each well was washed with 50 μl DPBS. Transiently transfected cells were detached from the cell culture flask by removal of the medium, 2-fold washing with 5 m1 DPBS and resuspending in 40 m1 Ham's F-12/DMEM (1/1; v/v) containing 15% FCS. 90,000 to 120,000 cells in 150 μl Ham's F-12/DMEM (1/1; v/v) containing 15% FCS were seeded per well and the plates were incubated under humidified atmosphere at 37° C. and 5% CO2 over night.
For each ligand, a serial dilution with eight different concentrations was prepared using Ham's F^12/DMEM (1/1; v/v). Before stimulation, the medium on the cells was replaced by 100 μl Ham's F^12/DMEM (1/1; v/v) and the plates were incubated for 1 h under humidified atmosphere at 37° C. and 5% CO2. For stimulation, the medium was removed and the cells were incubated for 3 h in 80 μl of ligand-solution under humidified atmosphere at 37° C. and 5% CO2. In addition 80 μl of a 5 μM forskolin solution in Ham's F-12/DMEM (1/1; v/v) was used as a positive control and 80 μl of Ham's F-12/DMEM (1/1; v/v) as a negative control. Each concentration and the controls were tested as triplicates.
After 3 h of stimulation, the solutions were removed and the cells were washed with 50 μl of Ham's F-12/DMEM (1/1; v/v) perwell. After 10 m incubation in 30 μl of Ham's F-12/DMEM (1/1; v/v) at room temperature, 30 μl of luciferase-solution (ONE-Glo™ Luciferase Assay System) was added and the luminescence was directly measured using an Infinite M200 (Tecan).
Data analysis of the luminescence measurement was carried out with GraphPad Prism 5. Therefore, the measured luminescence values of each plate were first corrected on the base of the respective average of forskolin stimulation. Afterwards they were normalized to [G14]ADM(14-52), which was used as standard peptide in every assay. After correction and normalization, data was analyzed using non-linear regression giving dose-response curves for each tested ligand.

| Structure (SMILES) | Emax [%] | EC50 [nM] |
| --- | --- | --- |
| CC[C@H](C)[C@H](NC(=O)[C@H](CCC(N)=O)NC(=O)[C@H](Cc1c[nH]cn1)NC(=O)[C@H](C)NC(=O)[C@H](CC(C)C)NC(=O)[C@H](CCCCN)NC(=O)[C@H](CCC(N)=O)NC(=O)[C@@H](NC(=O)[C@@H](NC(=O)[C@@H]1CSSC[C@H](NC(=O)CNC(=O)CN)C(=O)N[C@@H](CCCNC(=N)N)C(=O)N[C@@H](Cc2ccccc2)C(=O)NCC(=O)N[C@@H]([C@@H](C)O)C(=O)N1)[C@@H](C)O)C(C)C)C(=O)N[C@@H](Cc1ccc(O)cc1)C(=O)N[C@@H](CCC(N)=O)C(=O)N[C@@H](Cc1ccccc1)C(=O)N[C@H](C(=O)NCCOCCOCCOCCOCCOCCC(=O)N[C@H](C(=O)N[C@@H](C)C(=O)N1CCC[C@H]1C(=O)N[C@@H](CCCNC(=N)N)C(=O)N[C@@H](CO)C(=O)N[C@@H](CCCCN)C(=O)N[C@H](C(=O)N[C@@H](CO)C(=O)N1CCC[C@H]1C(=O)N[C@@H](CCC(N)=O)C(=O)NCC(=O)N[C@@H](Cc1ccc(O)cc1)C(N)=O)[C@@H](C)CC)C(C)C)[C@@H](C)O [Example 11, ((4R,7S,13S,16S,19R)-19-(2-(2-aminoacetamido)acetamido)-13-benzyl-16-(3-guanidinopropyl)-7-((R)-1-hydroxyethyl)-6,9,12,15,18-pentaoxo-1,2-dithia-5,8,11,14,17-pentaazacycloicosane-4-carbonyl)-L-threonyl-ADM(23-34)-(1-(λ^2-azaneyl)-3,6,9,12,15-pentaoxaoctadecan-18-oyl)-L-valyl-ADM(42-52)] (H-GGCRFGTCTVQKLAHQIYQFT[PEG5]VAPRSKISPQGY-NH2; disulfide 3-8) | 94 ± 2 | 39 |
| CC[C@H](C)[C@H](NC(=O)[C@H](CCC(N)=O)NC(=O)[C@H](Cc1c[nH]cn1)NC(=O)[C@H](C)NC(=O)[C@H](CC(C)C)NC(=O)[C@H](CCCCN)NC(=O)[C@H](CCC(N)=O)NC(=O)[C@@H](NC(=O)[C@@H](NC(=O)[C@@H]1CSSC[C@H](NC(=O)CNC(=O)[C@@H](N)CCCCNC(=O)CCCCCCCCCCCCCCCCC(=O)O)C(=O)N[C@@H](CCCNC(=N)N)C(=O)N[C@@H](Cc2ccccc2)C(=O)NCC(=O)N[C@@H]([C@@H](C)O)C(=O)N1)[C@@H](C)O)C(C)C)C(=O)N[C@@H](Cc1ccc(O)cc1)C(=O)N[C@@H](CCC(N)=O)C(=O)N[C@@H](Cc1ccccc1)C(=O)N[C@H](C(=O)N[C@@H](CC(=O)O)C(=O)N[C@@H](CCCCN)C(=O)N[C@@H](CC(=O)O)C(=O)N[C@@H](CCCCN)C(=O)N[C@@H](CC(=O)O)C(=O)N[C@@H](CC(N)=O)C(=O)N[C@H](C(=O)N[C@@H](C)C(=O)N1CCC[C@H]1C(=O)N[C@H]1CCCCNC(=O)C[C@@H](C(=O)N2CCC[C@H]2C(=O)N[C@@H](CCC(N)=O)C(=O)NCC(=O)N[C@@H](Cc2ccc(O)cc2)C(N)=O)NC(=O)[C@H]([C@@H](C)CC)NC(=O)[C@H](CCCCN)NC(=O)[C@H](CO)NC1=O)C(C)C)[C@@H](C)O [Example 13] (H-K(C18 diacid)GCRFGTCTVQKLAHQIYQFTDKDKDNVAPKSKIDPQGY-NH2; disulfide 3-8; lactam 31-35) | 94 ± 7 | 2.6 |
| CC[C@H](C)[C@H](NC(=O)[C@H](CCC(N)=O)NC(=O)[C@H](Cc1c[nH]cn1)NC(=O)[C@H](C)NC(=O)[C@H](CC(C)C)NC(=O)[C@H](CCCCN)NC(=O)[C@H](CCC(N)=O)NC(=O)[C@@H](NC(=O)[C@@H](NC(=O)[C@@H]1CSSC[C@H](NC(=O)CNC(=O)[C@@H](N)CCCCNC(=O)CCCCCCCCCCCCCCCCC(=O)O)C(=O)N[C@@H](CCCNC(=N)N)C(=O)N[C@@H](Cc2ccccc2)C(=O)NCC(=O)N[C@@H]([C@@H](C)O)C(=O)N1)[C@@H](C)O)C(C)C)C(=O)N[C@@H](Cc1ccc(O)cc1)C(=O)N[C@@H](CCC(N)=O)C(=O)N[C@@H](Cc1ccccc1)C(=O)N[C@H](C(=O)NCCOCCOCCOCCC(=O)N[C@@H](CC(=O)O)C(=O)N[C@@H](CC(N)=O)C(=O)N[C@H](C(=O)N[C@@H](C)C(=O)N1CCC[C@H]1C(=O)N[C@H]1CCCCNC(=O)C[C@@H](C(=O)N2CCC[C@H]2C(=O)N[C@@H](CCC(N)=O)C(=O)NCC(=O)N[C@@H](Cc2ccc(O)cc2)C(N)=O)NC(=O)[C@H]([C@@H](C)CC)NC(=O)[C@H](CCCCN)NC(=O)[C@H](CO)NC1=O)C(C)C)[C@@H](C)O [Example 14] (H-K(C18 diacid)GCRFGTCTVQKLAHQIYQFT[PEG3]DNVAPKSKIDPQGY-NH2; disulfide 3-8; lactam 28-32) | 92 ± 5 | 6.6 |

Other lines, results leading:

| Emax [%] | EC50 [nM] | Structure (SMILES) |
| --- | --- | --- |
| 77 ± 3 | 81 | CC[C@H](C)[C@H](NC(=O)[C@H](CCC(N)=O)NC(=O)[C@H](Cc1c[nH]cn1)NC(=O)[C@H](C)NC(=O)[C@H](CC(C)C)NC(=O)[C@H](CCCCN)NC(=O)[C@H](CCC(N)=O)NC(=O)[C@@H](NC(=O)[C@@H](NC(=O)[C@@H]1CSSC[C@H](NC(=O)CNC(=O)CN)C(=O)N[C@@H](CCCNC(=N)N)C(=O)N[C@@H](Cc2ccccc2)C(=O)NCC(=O)N[C@@H]([C@@H](C)O)C(=O)N1)[C@@H](C)O)C(C)C)C(=O)N[C@@H](Cc1ccc(O)cc1)C(=O)N[C@@H](CCC(N)=O)C(=O)N[C@@H](Cc1ccccc1)C(=O)N[C@H](C(=O)N[C@@H](CC(=O)O)C(=O)NCCOCCOCCOCCOCCC(=O)N[C@H](C(=O)N[C@@H](C)C(=O)N1CCC[C@H]1C(=O)N[C@@H](CCCNC(=N)N)C(=O)N[C@@H](CO)C(=O)N[C@@H](CCCCN)C(=O)N[C@H](C(=O)N[C@@H](CO)C(=O)N1CCC[C@H]1C(=O)N[C@@H](CCC(N)=O)C(=O)NCC(=O)N[C@@H](Cc1ccc(O)cc1)C(N)=O)[C@@H](C)CC)C(C)C)[C@@H](C)O [Example 10, ((4R,7S,13S,16S,19R)-19-(2-(2-aminoacetamido)acetamido)-13-benzyl-16-(3-guanidinopropyl)-7-((R)-1-hydroxyethyl)-6,9,12,15,18-pentaoxo-1,2-dithia-5,8,11,14,17-pentaazacycloicosane-4-carbonyl)-L-threonyl-ADM(23-35)-(1-(λ^2-azaneyl)-3,6,9,12-tetraoxapentadecan-15-oyl)-L-valyl-ADM(42-52)] (H-GGCRFGTCTVQKLAHQIYQFTD[PEG4]VAPRSKISPQGY-NH2; disulfide 3-8) |
| 79 ± 5 | 431 | CC[C@H](C)[C@H](NC(=O)[C@H](CCC(N)=O)NC(=O)[C@H](Cc1c[nH]cn1)NC(=O)[C@H](C)NC(=O)[C@H](CC(C)C)NC(=O)[C@H](CCCCN)NC(=O)[C@H](CCC(N)=O)NC(=O)[C@@H](NC(=O)[C@@H](NC(=O)[C@@H]1CSSC[C@H](NC(=O)CNC(=O)CN)C(=O)N[C@@H](CCCNC(=N)N)C(=O)N[C@@H](Cc2ccccc2)C(=O)NCC(=O)N[C@@H]([C@@H](C)O)C(=O)N1)[C@@H](C)O)C(C)C)C(=O)N[C@@H](Cc1ccc(O)cc1)C(=O)N[C@@H](CCC(N)=O)C(=O)N[C@@H](Cc1ccccc1)C(=O)N[C@H](C(=O)N[C@@H](CC(=O)O)C(=O)NCCOCCOCCOCCOCCOCCC(=O)N[C@@H](C)C(=O)N1CCC[C@H]1C(=O)N[C@@H](CCCNC(=N)N)C(=O)N[C@@H](CO)C(=O)N[C@@H](CCCCN)C(=O)N[C@H](C(=O)N[C@@H](CO)C(=O)N1CCC[C@H]1C(=O)N[C@@H](CCC(N)=O)C(=O)NCC(=O)N[C@@H](Cc1ccc(O)cc1)C(N)=O)[C@@H](C)CC)[C@@H](C)O [Example 12, ((4R,7S,13S,16S,19R)-19-(2-(2-aminoacetamido)acetamido)-13-benzyl-16-(3-guanidinopropyl)-7-((R)-1-hydroxyethyl)-6,9,12,15,18-pentaoxo-1,2-dithia-5,8,11,14,17-pentaazacycloicosane-4-carbonyl)-L-threonyl-ADM(23-35)-(1-(λ^2-azaneyl)-3,6,9,12,15-pentaoxaoctadecan-18-oyl)-L-alanyl-ADM(43-52)] (H-GGCRFGTCTVQKLAHQIYQFTD[PEG5]APRSKISPQGY-NH2; disulfide 3-8) |
